Assays:
albumins = conditions: cited from earlier work
Description: Pyrene and its derivatives are very popular fluorescent markers used to study interactions with HSA [49, 50, 51, 52]. Despite the fact that there is differentiated localization of pyrene derivatives in HSA, these systems are commonly applied as fluorescent probes, due to the high sensitivity of their fine vibronic structure to changes in the environment (the Ham effect) and long fluorescence lifetimes. […] A similar trend was also observed for the complex of ...

HSA = biological target: T1, HSA (Homo sapiens, UniProt P02768); conditions: probe trapped inside HSA; cited from earlier work
T1 construct: purchased Sigma-Aldrich
Description: The calculated value also confirmed existence of interactions between 2 and HSA with pyrene fragment presented on less polar environment inside protein. […] The binding constants 1.5 ± 0.3 × 10^6 dm^3 ...

[1] = Thioflavin T (ThT) fluorescence aggregation assay; type: physicochemical; conditions: peptide 0.33 mM with HSA 0.33 mM, phosphate buffer pH 6.0, 7 days at 37.2 °C, then ThT for 3 days, λexc 440 nm, 470–600 nm
Method: Insulin, peptides 5 and 6, and HSA (final concentration 0.66 mM), as well as each sample of the mixture of insulin, peptides 5 and 6) (0.33 mM) with HSA (0.33 mM) were incubated in phosphate buffer solution, pH 6.0 (2 mL), for 7 days at a temperature of 37.2 °C. Then, 2 mL of a solution of Thioflavin T ([…] in phosphate buffer, pH 6.0) was added to the samples. Incubation continued for another 3 days. During this time, spectroscopic measurements of all samples were performed in the range of 470–600 nm, excitation wavelength 440 nm. The intensity of fluorescence spectra recorded on the first, second, and third days of incubation for all samples. are shown in the Supplementary Material (Figures S3 and S4).
The fluorescence intensity measurements were carried out using a FLUOROMAX-4 system from Horiba Scientific (Edison, NJ, USA), measurement range of 470–600 nm, excitation wavelength 440 nm.

[2] = Circular dichroism (CD) after incubation with HSA; type: physicochemical; conditions: 0.1 mg/mL, phosphate buffer pH 7.2, measured after 30 min, two and four days of incubation at 37 °C, 190–270 nm
Method: Samples were prepared by dissolving 1 mg of the analyzed peptide in phosphate buffer pH 7.2 (10 mL), to a final concentration of 0.1 mg/mL All measurements were carried out at room temperature using a quartz cuvette (1 mm path length, Hellma). The experimental settings were as follows: measurements range, 190–270 nm; data pitch, 5 nm; scanning mode, continuous; scanning speed, 100 nm/min; bandwidth, 3 nm; integration time, 1 s.
The CD spectra were recorded using a Jasco J-1500 instrument (Jasco, Cracow, Poland) and quartz cuvettes with 1 mm optical path lengths. The measurements were acquired in the range of 190–270 nm at ambient temperature by taking points every 5 nm, with a scan rate of 100 nm per min, an integration time of 1 s, and a bandwidth of 4 nm. The samples were prepared in phosphate buffer (0.1 M, pH 7.2) with a final concentration of 0.1 mg/mL.
Circular dichroism (CD) spectroscopy can be a very valuable source of information about differences in the secondary structure of peptides and proteins. It has been shown that all α-helical proteins show a strong minimum at 222 nm and 208–210 nm and a strong maximum at 191–193 nm. In the case of β-sheet protein, a single negative band may be observed in the 210–225 nm wavelength range and a strong positive band in the 190–200 nm wavelength range, although their intensities are noticeably lower than those for α-proteins. The CD spectra recorded for buffered solutions of insulin (4) and hot-spot fragments (5), (6) in the presence of HSA as well as for native insulin are presented in Figure 9a,b. The measurements were performed after 30 min (sample 0), and then after two and four days of incubation at 37 °C.

[3] = Congo Red (CR) UV-Vis aggregation assay; type: physicochemical; conditions: peptide 1.44 mM with HSA 1.44 mM, phosphate buffer pH 7.2, 7 days at 37.2 °C, then CR 45 μM for 3 days, UV-Vis 400–800 nm
Method: Insulin, peptides 5 and 6, and HSA (final concentration 2.88 mM), as well as each sample of the mixture of insulin, peptides 5 and 6) (1.44 mM) with HSA (1.44 mM), were incubated in phosphate buffer solution at pH 7.2 (1 mL) for 7 days at a temperature of 37.2 °C. Then, 1 mL of a solution of Congo Red dye (45 μM in phosphate buffer, pH 7.2) was added to each incubated sample. Incubation continued for another 3 days. During this time, spectroscopic measurements of all the samples were performed in the range of 400–800 nm. The UV-Vis spectra recorded on the first, second, and third days of incubation for all samples are shown in the Supplementary Material (Figures S1 and S2).
The UV-Vis measurements were carried out using a Hitachi spectrophotometer (Hitachi, Tokyo, Japan).

[4] = Light microscopy of Congo Red stained aggregates; type: physicochemical; conditions: CR staining 3 days; for microscopic examination of CR-stained aggregates, in the presence of HSA: peptide 1.44 mM, HSA 0.30 mM, phosphate buffer 0.1 M pH 7.2, 7 days at 37.4 °C; for microscopic examination of CR-stained aggregates, without HSA: phosphate buffer 0.1 M pH 7.2, 7 days at 37 °C
Method: Microscopic studies were carried out for samples prepared in phosphate buffer (0.1 M, pH 7.2) incubated for 7 days at 37.4 °C. To 2 mL of H-LYQLENY-OH (5) and H-VEALYL-OH (6) (c = 2.88 mM) solution was added 2 mL of HSA solution (c = 0.60 mM). The final concentration of incubated peptides was equal to c = 1.44 mM, whereas, for plasma protein, it was 0.30 mM. Incubation was also performed for 4 mL of an HSA sample (c = 0.3 mM). After that period, 4 mL of CR solution (c = 45 μM in phosphate buffer, pH 7.2) was added to the all samples, which were incubated for another 3 days at room temperature.
The microscopic assays were performed for samples stained with Congo Red dye. The samples were transferred on a microscopic slide and visualized using a Delta Optical Genetic Pro (Warsaw, Poland) light microscope.

T1 sequence (P02768 25-609): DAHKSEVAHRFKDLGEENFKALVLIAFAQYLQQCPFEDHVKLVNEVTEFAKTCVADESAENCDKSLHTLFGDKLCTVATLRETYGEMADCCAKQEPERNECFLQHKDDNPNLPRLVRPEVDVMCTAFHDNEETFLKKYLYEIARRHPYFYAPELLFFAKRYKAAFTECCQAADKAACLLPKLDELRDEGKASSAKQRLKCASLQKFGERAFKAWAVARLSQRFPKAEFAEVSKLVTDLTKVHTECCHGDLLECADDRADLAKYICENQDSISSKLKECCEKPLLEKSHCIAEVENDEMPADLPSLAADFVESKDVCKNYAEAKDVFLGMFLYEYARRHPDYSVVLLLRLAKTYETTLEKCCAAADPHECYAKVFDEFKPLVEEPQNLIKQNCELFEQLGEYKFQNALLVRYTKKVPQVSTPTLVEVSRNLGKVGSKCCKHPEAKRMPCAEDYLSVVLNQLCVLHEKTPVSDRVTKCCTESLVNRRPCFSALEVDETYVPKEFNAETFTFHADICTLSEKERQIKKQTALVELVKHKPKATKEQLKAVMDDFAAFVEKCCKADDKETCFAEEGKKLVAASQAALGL

O=C(O)CCCc1ccc2ccc3cccc4ccc1c2c34 [PBA, 4-(1-pyrene)butyric acid]
affinity for albumin (albumins): weak affinity

O=S(=O)(O)c1ccc2ccc3cccc4ccc1c2c34 [PSA, 1-pyrene sulfonic acid]
binding constant, non-specific binding (HSA): 3.8 × 10^5 dm^3 mol^−1
binding constant, specific receptor site (HSA): 6.5 × 10^6 dm^3 mol^−1

c1cc2ccc3cccc4ccc(c1)c2c34 [Pyrene]
binding constant with albumins (albumins; nonspecific binding, order of magnitude): ~10^4 dm^3 mol^−1

H-LYQLENY-OH [LYQLENY, H-LYQLENY-OH]
Thioflavin T assay of HSA complexes: fluorescence intensity [1]: no increase in fluorescence intensity
secondary structure / amyloid formation in the presence of HSA by CD [2]: increase in the amount of the α-helix structure
Congo Red assay of HSA complexes: absorbance change [3]: no decrease in absorbance typical for amyloid structures
microscopic examination of CR-stained aggregates, in the presence of HSA [4]: significantly less content of fibers characteristic for amyloid deposits
microscopic examination of CR-stained aggregates, without HSA [4]: typical amyloid fibers

H-VEALYL-OH [VEALYL, H-VEALYL-OH]
Thioflavin T assay of HSA complexes: fluorescence intensity [1]: no increase in fluorescence intensity
secondary structure / amyloid formation in the presence of HSA by CD [2]: prevents the formation of amyloid fibrils
Congo Red assay of HSA complexes: absorbance change [3]: no decrease in absorbance typical for amyloid structures
microscopic examination of CR-stained aggregates, in the presence of HSA [4]: significantly less content of fibers characteristic for amyloid deposits
microscopic examination of CR-stained aggregates, without HSA [4]: typical amyloid fibers

insulin: native human recombinant insulin (Sigma-Aldrich)
Thioflavin T assay of HSA complexes: fluorescence intensity [1]: no increase in fluorescence intensity
secondary structure / amyloid formation in the presence of HSA by CD [2]: does not tend to form amyloid fibrils
Congo Red assay of HSA complexes: absorbance change [3]: no decrease in absorbance typical for amyloid structures

Source: article PMC7601681, “Human Serum Albumin Binds Native Insulin and Aggregable Insulin Fragments and Inhibits Their Aggregation” (Biomolecules, 2020)
